Results reported in ChEMBL document CHEMBL3856264, “Discovery of novel 2',4'-dimethyl-[4,5'-bithiazol]-2-yl amino derivatives as orally bioavailable TRPV4 antagonists for the treatment of pain: Part 1” (Bioorg Med Chem Lett, 2016).
pIC50: −log10 of the molar value. ≈ marks a conversion by molar mass, not a printed value.

Experiments:
[1] = target: T1, Transient receptor potential cation channel subfamily V member 4 (Homo sapiens, UniProt Q9HBA0); assay: Antagonist activity at human recombinant TRPV4 expressed in CHO-K1 cells assessed as blockade of 1000 nM 4alphaPDD-induced calcium mobilization by FLIPR assay; format: cell-based
[2] = Stability in human liver microsomes assessed as compound remaining after 30 mins in presence or absence of NADPH generating system at 37 degC; format: ADME, microsome; conditions: read-out: Stability
[3] = Aqueous solubility of compound in sodium phosphate buffer containing 1% DMSO at pH 6.8; format: physicochemical
[4] = Antagonist activity at guinea pig recombinant TRPV4 expressed in CHO-K1 cells assessed as blockade of 250 nM 4alphaPDD-induced calcium mobilization by FLIPR assay; format: cell-based; conditions: Cavia porcellus
[5] = target: Transient receptor potential cation channel subfamily V member 1 (Homo sapiens, UniProt Q8NER1); assay: Antagonist activity at human TRPV1 expressed in CHO cells assessed as blockade of 100 nM capsaicin-induced calcium mobilization by FLIPR assay; format: cell-based
[6] = Stability in guinea pig liver microsomes assessed as compound remaining after 30 mins in presence or absence of NADPH generating system at 37 degC; format: ADME, Cavia porcellus, microsome; conditions: read-out: Stability
Cytochrome P450 1A2 = target: T2, Cytochrome P450 1A2 (Homo sapiens, UniProt P05177); assay: Inhibition of CYP1A2 (unknown origin); format: ADME
T2 sequence (P05177 whole entry): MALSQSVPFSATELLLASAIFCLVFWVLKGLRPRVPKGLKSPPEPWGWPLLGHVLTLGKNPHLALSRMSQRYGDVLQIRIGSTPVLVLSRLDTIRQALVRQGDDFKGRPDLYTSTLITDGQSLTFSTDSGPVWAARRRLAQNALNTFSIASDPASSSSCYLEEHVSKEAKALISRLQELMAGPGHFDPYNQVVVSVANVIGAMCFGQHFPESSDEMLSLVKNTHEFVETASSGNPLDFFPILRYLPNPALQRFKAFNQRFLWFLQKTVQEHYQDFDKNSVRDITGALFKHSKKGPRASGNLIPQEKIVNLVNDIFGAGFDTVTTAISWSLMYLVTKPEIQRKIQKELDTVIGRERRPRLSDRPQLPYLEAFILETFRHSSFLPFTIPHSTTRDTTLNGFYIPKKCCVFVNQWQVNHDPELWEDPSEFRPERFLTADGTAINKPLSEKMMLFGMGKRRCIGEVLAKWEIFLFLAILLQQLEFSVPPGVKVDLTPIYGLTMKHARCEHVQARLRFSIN

Cytochrome P450 2C19 = Cytochrome P450 2C19 (Homo sapiens, UniProt P33261); assay: Inhibition of CYP2C19 (unknown origin); format: ADME
Cytochrome P450 2C9 = Cytochrome P450 2C9 (Homo sapiens, UniProt P11712); assay: Inhibition of CYP2C9 (unknown origin); format: ADME
Cytochrome P450 2D6 = Cytochrome P450 2D6 (Homo sapiens, UniProt P10635); assay: Inhibition of CYP2D6 (unknown origin); format: ADME
Cytochrome P450 3A4 = Cytochrome P450 3A4 (Homo sapiens, UniProt P08684); assay: Inhibition of CYP3A4 (unknown origin); format: ADME
[7] = Protein binding in guinea pig plasma; format: ADME, cell-free, Cavia porcellus; conditions: read-out: PPB (converted)
[8] = target: Voltage-gated inwardly rectifying potassium channel KCNH2 (Homo sapiens, UniProt Q12809); assay: Inhibition of human ERG
[9] = Total clearance in guinea pig at 0.5 mg/kg, iv; format: ADME, organism-based, Cavia porcellus; conditions: in vivo
[10] = Half life in guinea pig at 0.5 mg/kg, iv; format: ADME, organism-based, Cavia porcellus; conditions: in vivo
[11] = Volume of distribution at steady state in guinea pig at 0.5 mg/kg, iv; format: ADME, organism-based, Cavia porcellus; conditions: in vivo, read-out: Vdss
[12] = Cmax in guinea pig at 1 mg/kg, po; format: ADME, organism-based, Cavia porcellus; design: dose 1 mg/kg, route oral; conditions: in vivo
[13] = AUC in guinea pig at 1 mg/kg, po; format: ADME, organism-based, Cavia porcellus; conditions: in vivo
[14] = Tmax in guinea pig at 1 mg/kg, po; format: ADME, organism-based, Cavia porcellus; conditions: in vivo
[15] = Oral bioavailability in guinea pig at 1 mg/kg; format: ADME, organism-based, Cavia porcellus; conditions: in vivo
Cavia porcellus [16] = assay: Analgesic activity in FCA-induced guinea pig mechanical hyperalgesia model assessed as reversal of mechanical hyperalgesia at 10 mg/kg, po after 1 hr (reference value: 1.6 +/- 3.4%); format: functional
Cavia porcellus [17] = assay: Analgesic activity in FCA-induced guinea pig mechanical hyperalgesia model assessed as reversal of mechanical hyperalgesia at 30 mg/kg, po after 1 hr (reference value: 1.6 +/- 3.4%); format: functional
[18] = Plasma concentration in FCA-induced guinea pig mechanical hyperalgesia model at 10 mg/kg, po after 1 hr; format: ADME, organism-based, Cavia porcellus
[19] = Plasma concentration in FCA-induced guinea pig mechanical hyperalgesia model at 30 mg/kg, po after 1 hr; format: ADME, organism-based, Cavia porcellus
Salmonella typhimurium = assay: Genotoxicity in Salmonella typhimurium by Ames test; format: toxicity, organism-based; conditions: salmonella enterica subsp. enterica serovar typhimurium
CHO-K1 = assay: Selectivity ratio of IC50 for guinea pig recombinant TRPV4 expressed in CHO-K1 cells to IC50 for human recombinant TRPV4 expressed in CHO-K1 cells; format: cell-based
[20] = target: T1, Transient receptor potential cation channel subfamily V member 4; assay: Antagonist activity at human recombinant TRPV4 expressed in CHO-K1 cells assessed as blockade of hypotonic solution-induced calcium mobilization by FLIPR assay; format: cell-based

T1 sequence (Q9HBA0 whole entry): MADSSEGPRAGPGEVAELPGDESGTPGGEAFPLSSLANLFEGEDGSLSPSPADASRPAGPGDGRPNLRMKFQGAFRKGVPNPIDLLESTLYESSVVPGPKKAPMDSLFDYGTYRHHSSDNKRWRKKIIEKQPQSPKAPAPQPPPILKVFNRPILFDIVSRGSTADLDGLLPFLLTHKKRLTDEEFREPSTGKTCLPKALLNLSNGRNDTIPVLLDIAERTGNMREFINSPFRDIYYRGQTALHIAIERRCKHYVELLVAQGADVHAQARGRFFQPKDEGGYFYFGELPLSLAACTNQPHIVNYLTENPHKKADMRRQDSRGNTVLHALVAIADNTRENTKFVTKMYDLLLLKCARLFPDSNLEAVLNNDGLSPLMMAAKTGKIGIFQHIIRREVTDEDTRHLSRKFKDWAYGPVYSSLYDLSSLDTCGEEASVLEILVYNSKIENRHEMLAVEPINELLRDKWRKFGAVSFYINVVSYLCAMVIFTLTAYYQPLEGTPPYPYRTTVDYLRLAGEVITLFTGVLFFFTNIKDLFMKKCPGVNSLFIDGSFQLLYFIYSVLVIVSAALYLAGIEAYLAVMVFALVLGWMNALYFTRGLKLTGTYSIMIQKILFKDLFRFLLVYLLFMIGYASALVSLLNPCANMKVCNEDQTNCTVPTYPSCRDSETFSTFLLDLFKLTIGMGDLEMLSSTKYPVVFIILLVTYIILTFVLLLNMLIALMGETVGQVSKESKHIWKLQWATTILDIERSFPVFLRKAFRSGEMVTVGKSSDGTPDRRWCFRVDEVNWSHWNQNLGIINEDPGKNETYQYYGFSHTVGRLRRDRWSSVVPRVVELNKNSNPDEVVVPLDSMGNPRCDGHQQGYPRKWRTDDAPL
Chain of Transient receptor potential cation channel subfamily V member 1 (Q8NER1 whole entry): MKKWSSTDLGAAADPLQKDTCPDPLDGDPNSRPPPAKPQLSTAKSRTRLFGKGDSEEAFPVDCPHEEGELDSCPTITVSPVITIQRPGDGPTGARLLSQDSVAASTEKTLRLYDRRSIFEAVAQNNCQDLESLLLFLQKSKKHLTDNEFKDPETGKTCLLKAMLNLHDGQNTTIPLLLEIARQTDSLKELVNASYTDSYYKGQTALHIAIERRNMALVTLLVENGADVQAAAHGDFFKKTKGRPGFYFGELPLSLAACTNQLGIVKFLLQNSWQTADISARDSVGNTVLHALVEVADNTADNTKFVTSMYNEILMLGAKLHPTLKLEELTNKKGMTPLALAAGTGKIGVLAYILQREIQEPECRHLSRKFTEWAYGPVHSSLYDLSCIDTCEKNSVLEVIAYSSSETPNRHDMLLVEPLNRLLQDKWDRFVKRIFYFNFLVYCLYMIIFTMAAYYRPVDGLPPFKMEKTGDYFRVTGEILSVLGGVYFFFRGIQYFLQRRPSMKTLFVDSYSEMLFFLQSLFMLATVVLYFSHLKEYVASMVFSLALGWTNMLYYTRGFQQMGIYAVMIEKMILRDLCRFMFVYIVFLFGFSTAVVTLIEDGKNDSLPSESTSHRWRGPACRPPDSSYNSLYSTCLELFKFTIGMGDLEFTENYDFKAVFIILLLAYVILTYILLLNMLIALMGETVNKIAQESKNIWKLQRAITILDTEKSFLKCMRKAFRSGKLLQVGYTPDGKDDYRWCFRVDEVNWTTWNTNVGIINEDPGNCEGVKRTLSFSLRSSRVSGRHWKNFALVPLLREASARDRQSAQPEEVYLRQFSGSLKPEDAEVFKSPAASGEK
Chain of Cytochrome P450 3A4 (P08684 whole entry): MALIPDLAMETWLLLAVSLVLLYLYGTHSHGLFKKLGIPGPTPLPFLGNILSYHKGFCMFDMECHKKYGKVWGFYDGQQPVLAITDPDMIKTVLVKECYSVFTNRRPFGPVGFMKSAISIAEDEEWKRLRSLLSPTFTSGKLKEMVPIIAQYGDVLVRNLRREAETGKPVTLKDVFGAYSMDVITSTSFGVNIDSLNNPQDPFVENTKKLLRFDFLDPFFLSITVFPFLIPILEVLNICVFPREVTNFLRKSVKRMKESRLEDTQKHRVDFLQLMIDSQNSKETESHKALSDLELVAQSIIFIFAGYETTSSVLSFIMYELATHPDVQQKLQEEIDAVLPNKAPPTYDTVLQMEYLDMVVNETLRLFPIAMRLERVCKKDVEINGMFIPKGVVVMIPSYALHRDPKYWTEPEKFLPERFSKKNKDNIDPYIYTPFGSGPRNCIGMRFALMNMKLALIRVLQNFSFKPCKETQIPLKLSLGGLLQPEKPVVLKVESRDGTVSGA
Chain of Voltage-gated inwardly rectifying potassium channel KCNH2 (Q12809 whole entry): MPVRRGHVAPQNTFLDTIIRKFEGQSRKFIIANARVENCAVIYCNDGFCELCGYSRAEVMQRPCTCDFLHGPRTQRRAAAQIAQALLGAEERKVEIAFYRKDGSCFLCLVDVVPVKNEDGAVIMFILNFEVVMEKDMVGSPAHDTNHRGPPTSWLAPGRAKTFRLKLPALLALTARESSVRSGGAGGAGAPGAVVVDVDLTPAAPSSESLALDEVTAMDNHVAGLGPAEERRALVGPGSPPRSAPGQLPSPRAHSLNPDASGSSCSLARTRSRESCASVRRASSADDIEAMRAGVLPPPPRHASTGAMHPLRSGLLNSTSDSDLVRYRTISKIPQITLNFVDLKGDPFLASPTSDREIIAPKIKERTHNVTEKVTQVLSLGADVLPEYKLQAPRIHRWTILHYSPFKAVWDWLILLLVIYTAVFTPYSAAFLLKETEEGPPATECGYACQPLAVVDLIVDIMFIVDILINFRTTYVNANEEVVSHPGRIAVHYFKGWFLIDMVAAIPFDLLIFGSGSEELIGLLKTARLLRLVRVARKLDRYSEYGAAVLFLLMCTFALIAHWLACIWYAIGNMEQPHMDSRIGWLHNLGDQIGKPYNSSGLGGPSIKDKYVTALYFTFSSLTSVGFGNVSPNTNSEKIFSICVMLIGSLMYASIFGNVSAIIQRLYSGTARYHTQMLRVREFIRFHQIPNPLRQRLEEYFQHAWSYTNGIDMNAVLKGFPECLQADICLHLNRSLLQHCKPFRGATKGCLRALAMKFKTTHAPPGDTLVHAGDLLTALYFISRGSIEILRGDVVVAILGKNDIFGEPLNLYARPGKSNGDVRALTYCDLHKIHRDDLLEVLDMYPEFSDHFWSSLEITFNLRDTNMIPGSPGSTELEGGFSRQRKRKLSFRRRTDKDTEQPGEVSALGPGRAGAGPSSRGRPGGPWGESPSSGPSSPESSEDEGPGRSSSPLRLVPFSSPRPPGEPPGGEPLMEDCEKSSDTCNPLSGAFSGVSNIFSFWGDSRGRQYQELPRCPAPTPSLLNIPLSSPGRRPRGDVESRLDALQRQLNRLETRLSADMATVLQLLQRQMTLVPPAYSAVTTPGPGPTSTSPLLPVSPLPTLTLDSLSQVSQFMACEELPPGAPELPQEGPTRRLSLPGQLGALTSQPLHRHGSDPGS
Chain of Cytochrome P450 2C19 (P33261 whole entry): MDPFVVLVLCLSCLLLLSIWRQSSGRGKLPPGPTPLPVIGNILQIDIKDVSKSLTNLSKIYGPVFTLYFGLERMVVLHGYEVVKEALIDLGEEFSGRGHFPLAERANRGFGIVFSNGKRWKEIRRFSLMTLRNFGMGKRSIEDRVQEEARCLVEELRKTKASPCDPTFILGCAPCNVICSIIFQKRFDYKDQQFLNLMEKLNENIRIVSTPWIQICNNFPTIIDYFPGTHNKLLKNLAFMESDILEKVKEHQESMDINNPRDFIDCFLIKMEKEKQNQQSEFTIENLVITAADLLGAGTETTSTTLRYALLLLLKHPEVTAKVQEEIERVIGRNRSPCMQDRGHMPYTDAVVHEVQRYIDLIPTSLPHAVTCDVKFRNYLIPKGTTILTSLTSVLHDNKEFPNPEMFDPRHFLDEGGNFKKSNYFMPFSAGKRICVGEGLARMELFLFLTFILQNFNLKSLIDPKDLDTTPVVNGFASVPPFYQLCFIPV
Chain of Cytochrome P450 2D6 (P10635 whole entry): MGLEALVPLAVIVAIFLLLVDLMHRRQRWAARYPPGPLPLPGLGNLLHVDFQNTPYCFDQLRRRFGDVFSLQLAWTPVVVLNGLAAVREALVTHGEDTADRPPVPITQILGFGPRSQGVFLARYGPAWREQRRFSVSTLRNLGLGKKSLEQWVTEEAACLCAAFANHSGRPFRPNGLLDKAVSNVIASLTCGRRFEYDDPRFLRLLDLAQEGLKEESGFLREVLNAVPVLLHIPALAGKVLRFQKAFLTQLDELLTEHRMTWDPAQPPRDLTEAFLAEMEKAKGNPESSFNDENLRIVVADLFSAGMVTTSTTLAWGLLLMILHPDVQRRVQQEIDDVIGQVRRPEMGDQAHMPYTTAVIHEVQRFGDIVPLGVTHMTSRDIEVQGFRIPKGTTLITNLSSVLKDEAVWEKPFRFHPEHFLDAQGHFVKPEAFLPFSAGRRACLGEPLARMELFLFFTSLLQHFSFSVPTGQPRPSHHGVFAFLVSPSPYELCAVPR
Chain of Cytochrome P450 2C9 (P11712 whole entry): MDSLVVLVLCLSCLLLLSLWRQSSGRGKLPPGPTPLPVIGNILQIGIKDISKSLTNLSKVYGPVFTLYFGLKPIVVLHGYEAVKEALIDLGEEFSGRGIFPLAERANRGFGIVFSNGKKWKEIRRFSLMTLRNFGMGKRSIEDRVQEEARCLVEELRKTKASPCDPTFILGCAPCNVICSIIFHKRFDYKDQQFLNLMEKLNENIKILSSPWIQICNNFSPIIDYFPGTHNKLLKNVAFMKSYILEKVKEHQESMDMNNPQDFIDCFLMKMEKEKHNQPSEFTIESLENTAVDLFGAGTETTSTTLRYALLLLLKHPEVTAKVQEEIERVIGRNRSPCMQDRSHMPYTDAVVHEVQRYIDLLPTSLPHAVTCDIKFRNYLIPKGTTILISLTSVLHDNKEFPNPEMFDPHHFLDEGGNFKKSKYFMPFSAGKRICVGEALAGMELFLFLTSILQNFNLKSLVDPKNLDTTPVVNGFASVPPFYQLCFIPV

Structure (SMILES): Cc1nc(C)c(-c2csc(Nc3ccccn3)n2)s1
- pIC50 [1]: 8.00
- remaining at 0.5 h [2]: 1.1%

Structure (SMILES): Cc1nc(C)c(-c2csc(Nc3ccc(C(=O)N4C5CCC4CC(=O)C5)cn3)n2)s1
- remaining at 0.5 h [2]: 81%
- solubility [3]: 46.4 µM (≈ 20.4 µg/mL)

Structure (SMILES): Cc1nc(C)c(-c2csc(Nc3ccc(C(=O)Nc4ccc(Cl)cc4)cn3)n2)s1
- pIC50 [1]: 8.02
- remaining at 0.5 h [2]: 54.6%
- solubility [3]: 10.6 µM (≈ 4.68 µg/mL)

Structure (SMILES): Cc1nc(C)c(-c2csc(Nc3ncccn3)n2)s1
- pIC50 [1]: 5.00
- remaining at 0.5 h [2]: 0.3%

Structure (SMILES): COc1ccc(Nc2nc(-c3sc(C)nc3C)cs2)nc1
- pIC50 [1]: 7.46
- remaining at 0.5 h [2]: 10%

Structure (SMILES): Cc1nc(C)c(-c2csc(Nc3ccc(C(=O)NCc4ccc(Cl)cc4)cn3)n2)s1
- pIC50 [1]: 6.70
- remaining at 0.5 h [2]: 50.8%
- solubility [3]: 2.5 µM (≈ 1.14 µg/mL)

Structure (SMILES): Cc1nc(C)c(-c2csc(Nc3ccc(C(=O)N4CCCCC4)cn3)n2)s1
- pIC50 [1]: 7.43
- remaining at 0.5 h [2]: 74.5%
- solubility [3]: 0.8 µM (≈ 0.32 µg/mL)

Structure (SMILES): Cc1nc(C)c(-c2csc(Nc3ccc(C(=O)O)cn3)n2)s1
- pIC50 [1]: < 5.00
- remaining at 0.5 h [2]: 100%
- solubility [3]: > 50 µM

Structure (SMILES): Cc1nc(C)c(-c2csc(Nc3ccc(C(=O)N4C(C)CC(=O)CC4C)cn3)n2)s1 (centres undefined)
- pIC50 [1]: 7.34
- remaining at 0.5 h [2]: 52.8%
- solubility [3]: 45 µM (≈ 19.9 µg/mL)

Structure (SMILES): Cc1nc(C)c(-c2csc(Nc3ccc(C(=O)N4C5COCC4CC(=O)C5)cn3)n2)s1
- remaining at 0.5 h [2]: 100%
- solubility [3]: > 50 µM
- pIC50 [4]: 7.57
- pIC50 [5]: < 5.00
- remaining at 0.5 h [6]: 84%
- INH (Cytochrome P450 1A2): > 20 µM
- INH (Cytochrome P450 2C19): > 20 µM
- INH (Cytochrome P450 2C9): > 20 µM
- INH (Cytochrome P450 2D6): > 20 µM
- INH (Cytochrome P450 3A4): > 20 µM
- fraction unbound [7]: 0.1
- pIC50 [8]: < 4.52
- clearance [9]: 37.1 mL/min/kg
- half-life [10]: 66 min
- Vd [11]: 2.5 L/kg
- Cmax [12]: 59.2 ng/mL
- AUC [13]: 200 ng·h/mL
- Tmax [14]: 30 min
- bioavailability [15]: 38.6%
- Activity (Cavia porcellus [16]): 30.8%
- Activity (Cavia porcellus [17]): 45.6%
- concentration at 1 h [18]: 515 ng/mL
- concentration at 1 h [19]: 1940 ng/mL
- Activity (Salmonella typhimurium): Non-Toxic
- Ratio IC50 (CHO-K1): 1.4
- pIC50 [20]: 8.51

Structure (SMILES): Cc1nc(C)c(-c2csc(Nc3ccc(Br)cc3)n2)s1
- pIC50 [1]: 7.47
- remaining at 0.5 h [2]: 86.4%

Structure (SMILES): Cc1nc(C)c(-c2csc(Nc3ccc(C(=O)NC4CCCCC4)cn3)n2)s1
- pIC50 [1]: 7.54
- remaining at 0.5 h [2]: 55%
- solubility [3]: 1.8 µM (≈ 0.744 µg/mL)

Structure (SMILES): Cc1nc(C)c(-c2csc(Nc3ccc(C(=O)N(C)c4ccc(Cl)cc4)cn3)n2)s1
- pIC50 [1]: 7.30
- remaining at 0.5 h [2]: 53.6%
- solubility [3]: 1.4 µM (≈ 0.638 µg/mL)

Structure (SMILES): COc1cccnc1Nc1nc(-c2sc(C)nc2C)cs1
- pIC50 [1]: < 5.00
- remaining at 0.5 h [2]: 30.9%

Structure (SMILES): CCOC(=O)c1ccc(Nc2nc(-c3sc(C)nc3C)cs2)nc1
- pIC50 [1]: 7.96
- remaining at 0.5 h [2]: 13.5%
- solubility [3]: 3.4 µM (≈ 1.23 µg/mL)

Structure (SMILES): COc1ccnc(Nc2nc(-c3sc(C)nc3C)cs2)c1
- pIC50 [1]: 6.39
- remaining at 0.5 h [2]: 0.7%

Structure (SMILES): Cc1nc(C)c(-c2csc(Nc3ccc(C(=O)N4CCC(=O)CC4)cn3)n2)s1
- pIC50 [1]: 6.21
- remaining at 0.5 h [2]: 1.4%
- solubility [3]: > 50 µM

Structure (SMILES): Cc1nc(C)c(-c2csc(Nc3ccncc3)n2)s1
- pIC50 [1]: 5.48
- remaining at 0.5 h [2]: 17.8%

Structure (SMILES): Cc1nc(C)c(-c2csc(Nc3ccc(C(=O)N4C(C)CCCC4C)cn3)n2)s1 (centres undefined)
- pIC50 [1]: 8.20
- remaining at 0.5 h [2]: 2.1%
- solubility [3]: < 0.1 µM

Structure (SMILES): Cc1nc(C)c(-c2csc(Nc3ncccc3C#N)n2)s1
- pIC50 [1]: 5.37
- remaining at 0.5 h [2]: 1.3%

Structure (SMILES): Cc1nc(C)c(-c2csc(Nc3cccnc3)n2)s1
- pIC50 [1]: 6.31
- remaining at 0.5 h [2]: 39.5%

Structure (SMILES): Cc1nc(C)c(-c2csc(Nc3cccc(C#N)n3)n2)s1
- pIC50 [1]: 7.00
- remaining at 0.5 h [2]: 66.4%

Structure (SMILES): Cc1nc(C)c(-c2csc(Nc3ccc(C#N)cn3)n2)s1
- pIC50 [1]: 7.66
- remaining at 0.5 h [2]: 65%
- solubility [3]: 1.7 µM (≈ 0.533 µg/mL)

Structure (SMILES): CCNC(=O)c1ccc(Nc2nc(-c3sc(C)nc3C)cs2)nc1
- pIC50 [1]: < 5.00
- remaining at 0.5 h [2]: 81.4%
- solubility [3]: 2.8 µM (≈ 1.01 µg/mL)

Structure (SMILES): Cc1nc(C)c(-c2csc(Nc3ccc(NS(=O)(=O)c4ccc(Cl)cc4)cn3)n2)s1
- pIC50 [1]: 6.62
- remaining at 0.5 h [2]: 81.5%
- solubility [3]: 1.2 µM (≈ 0.574 µg/mL)

Structure (SMILES): Cc1nc(C)c(-c2csc(Nc3ccc(S(=O)(=O)Nc4ccc(Cl)cc4)cn3)n2)s1
- pIC50 [1]: 6.54
- remaining at 0.5 h [2]: 83.4%
- solubility [3]: 4.5 µM (≈ 2.15 µg/mL)

Structure (SMILES): COc1cccc(Nc2nc(-c3sc(C)nc3C)cs2)n1
- pIC50 [1]: 7.64
- remaining at 0.5 h [2]: 40%

Structure (SMILES): Cc1nc(C)c(-c2csc(Nc3ccc(NC(=O)c4ccc(Cl)cc4)cn3)n2)s1
- pIC50 [1]: < 5.00
- remaining at 0.5 h [2]: 65.2%
- solubility [3]: 3.9 µM (≈ 1.72 µg/mL)

Structure (SMILES): Cc1nc(C)c(-c2csc(Nc3cc(C#N)ccn3)n2)s1
- pIC50 [1]: 6.62
- remaining at 0.5 h [2]: 2.8%

Structure (SMILES): Cc1nc(C)c(-c2csc(Nc3ccccc3)n2)s1
- pIC50 [1]: 7.51
- remaining at 0.5 h [2]: 22.8%
